Experimental data taken from the supplement of paper PMC10307832.

Experiments:
Assay in all cases: relative viability (nuclei count vs DMSO), 5 days (fraction); higher = more cells survive
EMC-BAC-2 = tested on: EMC-BAC-2
Outline: (§1)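 Lung cancer cell lines in 1536-well plates were dosed by pin tool the day after seeding, either with one drug alone or with a fixed anchor-drug dose plus five library-drug doses (not always all listed) in √10 steps. After 5 days, cells were fixed and their nuclei stained in one step (final 0.05% Triton X-100, 1% formaldehyde, 1 ug/ml Hoechst), then counted on 4× images. Relative viability is the nuclei count in treated wells divided by that in vehicle wells. Values are medians of duplicate plates.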

LK-2 = tested on: LK-2
Outline: as §1

NCI-H727 = tested on: NCI-H727
Outline: as §1

HOP-62 = tested on: HOP-62
Outline: as §1

RERF-LC-KJ = tested on: RERF-LC-KJ
Outline: as §1

NCI-H1650 = tested on: NCI-H1650
Outline: as §1

NCI-H1651 = tested on: NCI-H1651
Outline: as §1

NCI-H1437 = tested on: NCI-H1437
Outline: as §1

HARA = tested on: HARA
Outline: as §1

HCC-366 = tested on: HCC-366
Outline: as §1

COR-L23 = tested on: COR-L23
Outline: as §1

CAL-12T = tested on: CAL-12T
Outline: as §1

NCI-H1734 = tested on: NCI-H1734
Outline: as §1

NCI-H596 = tested on: NCI-H596
Outline: as §1

PC-3 [JPC-3] = tested on: PC-3 [JPC-3]
Outline: as §1

SK-LU-1 = tested on: SK-LU-1
Outline: as §1

UMC-11 = tested on: UMC-11
Outline: as §1

NCI-H3122 = tested on: NCI-H3122
Outline: as §1

NCI-H2347 = tested on: NCI-H2347
Outline: as §1

NCI-H441 = tested on: NCI-H441
Outline: as §1

ABC-1 = tested on: ABC-1
Outline: as §1

NCI-H1755 = tested on: NCI-H1755
Outline: as §1

## CN1CCN(CCOc2cc(OC3CCOCC3)c3c(Nc4c(Cl)ccc5c4OCO5)ncnc3c2)CC1 [Saracatinib] + Cc1cc(Nc2cc(N3CCN(C)CC3)nc(Sc3ccc(NC(=O)C4CC4)cc3)n2)n[nH]1 [Tozasertib] (partner 0.1 µM)
EMC-BAC-2; first compound 0.02 µM
  relative viability: 0.265
EMC-BAC-2; first compound 0.2 µM
  relative viability: 0.256
EMC-BAC-2; first compound 0.6325 µM
  relative viability: 0.286
EMC-BAC-2; first compound 2 µM
  relative viability: 0.271
LK-2; first compound 0.02 µM
  relative viability: 0.205
LK-2; first compound 0.2 µM
  relative viability: 0.188
LK-2; first compound 0.6325 µM
  relative viability: 0.204
LK-2; first compound 2 µM
  relative viability: 0.193
NCI-H727; first compound 0.02 µM
  relative viability: 0.618
NCI-H727; first compound 0.2 µM
  relative viability: 0.506
NCI-H727; first compound 0.6325 µM
  relative viability: 0.525
NCI-H727; first compound 2 µM
  relative viability: 0.454
HOP-62; first compound 0.02 µM
  relative viability: 0.367
HOP-62; first compound 0.2 µM
  relative viability: 0.318
HOP-62; first compound 0.6325 µM
  relative viability: 0.394
HOP-62; first compound 2 µM
  relative viability: 0.384
RERF-LC-KJ; first compound 0.02 µM
  relative viability: 0.52
RERF-LC-KJ; first compound 0.2 µM
  relative viability: 0.465
RERF-LC-KJ; first compound 0.6325 µM
  relative viability: 0.497
RERF-LC-KJ; first compound 2 µM
  relative viability: 0.363
NCI-H1650; first compound 0.02 µM
  relative viability: 0.435
NCI-H1650; first compound 0.2 µM
  relative viability: 0.294
NCI-H1650; first compound 0.6325 µM
  relative viability: 0.22
NCI-H1650; first compound 2 µM
  relative viability: 0.204
NCI-H1651; first compound 0.02 µM
  relative viability: 0.71
NCI-H1651; first compound 0.2 µM
  relative viability: 0.555
NCI-H1651; first compound 0.6325 µM
  relative viability: 0.691
NCI-H1651; first compound 2 µM
  relative viability: 0.625
NCI-H1437; first compound 0.02 µM
  relative viability: 0.431
NCI-H1437; first compound 0.2 µM
  relative viability: 0.31
NCI-H1437; first compound 0.6325 µM
  relative viability: 0.407
NCI-H1437; first compound 2 µM
  relative viability: 0.344
HARA; first compound 0.02 µM
  relative viability: 0.118
HARA; first compound 0.2 µM
  relative viability: 0.0998
HARA; first compound 0.6325 µM
  relative viability: 0.0847
HARA; first compound 2 µM
  relative viability: 0.0726
HCC-366; first compound 0.02 µM
  relative viability: 0.117
HCC-366; first compound 0.6325 µM
  relative viability: 0.074
HCC-366; first compound 2 µM
  relative viability: 0.0412
COR-L23; first compound 0.02 µM
  relative viability: 0.185
COR-L23; first compound 0.2 µM
  relative viability: 0.207
COR-L23; first compound 0.6325 µM
  relative viability: 0.155
COR-L23; first compound 2 µM
  relative viability: 0.174
CAL-12T; first compound 0.02 µM
  relative viability: 0.361
CAL-12T; first compound 0.2 µM
  relative viability: 0.387
CAL-12T; first compound 0.6325 µM
  relative viability: 0.283
CAL-12T; first compound 2 µM
  relative viability: 0.194
NCI-H1734; first compound 0.02 µM
  relative viability: 0.305
NCI-H1734; first compound 0.6325 µM
  relative viability: 0.261
NCI-H1734; first compound 2 µM
  relative viability: 0.24
NCI-H596; first compound 0.02 µM
  relative viability: 0.8
NCI-H596; first compound 0.2 µM
  relative viability: 0.847
NCI-H596; first compound 0.6325 µM
  relative viability: 1.07
NCI-H596; first compound 2 µM
  relative viability: 0.708
PC-3 [JPC-3]; first compound 0.02 µM
  relative viability: 0.933
PC-3 [JPC-3]; first compound 0.2 µM
  relative viability: 0.824
PC-3 [JPC-3]; first compound 0.6325 µM
  relative viability: 0.834
PC-3 [JPC-3]; first compound 2 µM
  relative viability: 0.469
SK-LU-1; first compound 0.02 µM
  relative viability: 0.354
SK-LU-1; first compound 0.2 µM
  relative viability: 0.231
SK-LU-1; first compound 0.6325 µM
  relative viability: 0.172
SK-LU-1; first compound 2 µM
  relative viability: 0.132
UMC-11; first compound 0.02 µM
  relative viability: 0.206
UMC-11; first compound 0.2 µM
  relative viability: 0.175
UMC-11; first compound 0.6325 µM
  relative viability: 0.213
UMC-11; first compound 2 µM
  relative viability: 0.185
NCI-H3122; first compound 0.02 µM
  relative viability: 0.569
NCI-H3122; first compound 0.2 µM
  relative viability: 0.358
NCI-H3122; first compound 0.6325 µM
  relative viability: 0.384
NCI-H3122; first compound 2 µM
  relative viability: 0.298
NCI-H2347; first compound 0.02 µM
  relative viability: 0.514
NCI-H2347; first compound 0.2 µM
  relative viability: 0.517
NCI-H2347; first compound 0.6325 µM
  relative viability: 0.539
NCI-H2347; first compound 2 µM
  relative viability: 0.518
NCI-H441; first compound 0.02 µM
  relative viability: 0.557
NCI-H441; first compound 0.2 µM
  relative viability: 0.601
NCI-H441; first compound 0.6325 µM
  relative viability: 0.728
NCI-H441; first compound 2 µM
  relative viability: 0.641
ABC-1; first compound 0.02 µM
  relative viability: 0.157
ABC-1; first compound 0.2 µM
  relative viability: 0.164
ABC-1; first compound 0.6325 µM
  relative viability: 0.169
ABC-1; first compound 2 µM
  relative viability: 0.14
NCI-H1755; first compound 0.02 µM
  relative viability: 0.526
NCI-H1755; first compound 0.2 µM
  relative viability: 0.528
NCI-H1755; first compound 0.6325 µM
  relative viability: 0.644
NCI-H1755; first compound 2 µM
  relative viability: 0.459
